Assays:
Format in all cases: biochemical
IDH2 mutant (R140Q) = target: T1, IDH2 mutant (R140Q) (Homo sapiens, UniProt P48735, R140Q); assay: Mutant IDH2-R140Q Fluorescence Assay (Resazurin based); conditions: 5 nM IDH2 R140Q, 4 hr pre-incubation, 1 mM α-ketoglutarate, 5 μM NADPH, 2 h
T1 construct: purchased BPS Bioscience 71100-2
T1 sequence (P48735 40-452 R140Q): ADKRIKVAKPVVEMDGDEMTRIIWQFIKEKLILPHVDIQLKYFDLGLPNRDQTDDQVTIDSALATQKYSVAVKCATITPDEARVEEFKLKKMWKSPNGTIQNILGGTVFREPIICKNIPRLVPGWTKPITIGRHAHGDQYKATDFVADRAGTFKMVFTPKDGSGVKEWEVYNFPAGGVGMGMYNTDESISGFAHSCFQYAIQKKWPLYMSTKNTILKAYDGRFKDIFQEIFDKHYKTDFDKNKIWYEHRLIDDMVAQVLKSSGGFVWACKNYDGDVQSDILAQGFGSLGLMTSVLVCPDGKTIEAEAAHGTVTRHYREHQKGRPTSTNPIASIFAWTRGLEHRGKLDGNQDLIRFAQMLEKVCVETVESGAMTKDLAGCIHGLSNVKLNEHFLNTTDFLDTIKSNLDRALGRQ
Procedure: IC50 values of compounds against IDH2 mutant (R140Q) were determined by Resazurin based Fluorescence assay. Assay was performed in Buffer (25 mM Tris HCl, 150 mM NaCl, 10 mM MgCl2, 0.03% BSA, 2 mM 1-mercaptoethanol) where total reaction volume was 12.5 μL in low-volume 384-well plates (Cat #4511, Corning). Serially diluted compounds (3-fold) were pre-incubated with IDH2 R140Q mutant enzyme (5 nM; Cat #71100-2, BPS Bioscience) for 4 hr at RT (25° C.) followed by addition of cocktail of α-ketoglutarate (1 mM; Cat #75892-25G, Sigma), and NADPH (5 μM; Cat # N1630-100MG, Sigma) with buffer in dark at room temperature for 2 h. After 2 h incubation, 6.25 μL detection solution containing Resazurin (30 μM; (Cat #62758-13-8, Sigma) and Diaphorase (40 ug/ml; Cat # D2197-300UN, Sigma) in buffer was added and incubated for 15 min. Readings were taken in a Synergy Neo Plate reader (BioTek, Winooski) at single excitation of 540 nm and emission at 590 nm respectively.
The % activity of test samples was calculated as (Sample−Min)×100/(Max−Min). [Max: DMSO control, complete reaction with enzyme with DMSO and Min: No enzyme with DMSO]. Percent inhibition (100−% activity) was fitted to the “four-parameter logistic model” in XLfit for determination of IC50 values.

IDH1 mutant (R132H) = target: T2, IDH1 mutant (R132H) (Homo sapiens, UniProt O75874, R132H); assay: Mutant IDH1-R132H Fluorescence Assay (Resazurin based); conditions: 10 nM IDH1 R132H, 4 mM α-ketoglutarate, NADPH, 1.5 h at room temperature
T2 construct: purchased BPS Bioscience 71099-2
T2 sequence (O75874 whole entry R132H): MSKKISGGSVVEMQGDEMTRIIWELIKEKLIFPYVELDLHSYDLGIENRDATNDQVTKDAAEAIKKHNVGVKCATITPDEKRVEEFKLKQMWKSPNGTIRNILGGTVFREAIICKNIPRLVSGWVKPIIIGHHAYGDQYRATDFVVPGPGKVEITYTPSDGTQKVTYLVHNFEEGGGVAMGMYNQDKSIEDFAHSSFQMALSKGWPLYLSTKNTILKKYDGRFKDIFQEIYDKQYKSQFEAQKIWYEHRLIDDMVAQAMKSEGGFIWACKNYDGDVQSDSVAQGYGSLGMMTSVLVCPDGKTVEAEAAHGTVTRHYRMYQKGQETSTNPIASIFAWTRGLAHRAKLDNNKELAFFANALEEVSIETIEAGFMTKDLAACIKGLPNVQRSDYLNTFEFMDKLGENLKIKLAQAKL
Procedure: IC50 values of compounds against IDH1 mutant (R132H) was determined by Resazurin based Fluorescence assay. Assays were performed in Buffer (25 mM Tris HCl, 150 mM NaCl, 10 mM MgCl2, 0.03% BSA, 2 mM 1-mercaptoethanol) where total reaction volume was 12.5 μL in low-volume 384-well plates (Cat #4511, Corning). Serially diluted compounds (3-fold) were incubated with cocktail of α-ketoglutarate (4 mM; Cat #75892-25G, Sigma), NADPH ([…]; Cat # N1630-100MG, Sigma) and buffer for 5 min, following IDH1 R132H mutant (10 nM; Cat #71099-2, BPS Bioscience) was added and incubated in dark at room temperature for 1.5 h. After 1.5 h, 6.25 μL detection solution containing Resazurin ([…]; (Cat #62758-13-8, Sigma) and Diaphorase (40 ug/ml; Cat # D2197-300UN, Sigma) in buffer was added and incubated for 15 min. Readings were taken in a Synergy Neo Plate reader (BioTek, Winooski) at single excitation of 540 nm and emission at 590 nm respectively.
(§1) The % (percent) activity of test samples was calculated as (Sample−Min)×100/(Max−Min). [Max: DMSO control, complete reaction with enzyme with DMSO and Min: No enzyme with DMSO]. Percent inhibition (100−% activity) was fitted to the “four-parameter logistic model” in XLfit for determination of IC50 values.

IDH1-WT = target: T3, IDH1-WT (Homo sapiens, UniProt O75874); assay: IDH1-WT Fluorescence Assay (Resazurin based); conditions: 1 nM IDH1-WT, 200 μM isocitrate, 15 μM NADP+, 30 min at room temperature
T3 construct: purchased BPS Bioscience 71075-2
T3 sequence (O75874 whole entry): as the sequence (O75874 whole entry R132H) above, with H132R counted along it
Procedure: IC50 values of compounds against IDH1-WT was determined by Resazurin based Fluorescence assay. Assays were performed in Buffer (50 mM Tris HCl, 10 mM MgCl2, 0.03% BSA, 2 mM ß-mercaptoethanol) where total reaction volume was 25 μL in low-volume 96-well plates. Serially diluted compounds (3-fold) in DMSO (0.5% in final reaction) were incubated with cocktail of isocitrate (200 μM; Cat # I1252-1G, Sigma), NADP^+ (15 μM; Cat # N0505-500MG, Sigma) and buffer for 5 min, following addition of IDH1-WT enzyme (1 nM; Cat #71075-2, BPS Bioscience) and incubated in dark at room temperature for 30 min. After that, 12.5 μL detection solution containing Resazurin (60 μM; Cat #62758-13-8, Sigma) and Diaphorase (40 μg/ml; Cat # D2197-300UN, Sigma) in buffer was added and incubated for 15 min. Readings were taken using a Synergy Neo Plate reader (BioTek, Winooski) at single excitation of 540 nm and emission at 590 nm respectively.
as §1

SMILES | IC50 (IDH2 mutant (R140Q)) | IC50 (IDH1 mutant (R132H)) | IC50 (IDH1-WT)
Cc1cc(-c2cnc([C@H](C)Nc3ncnc(N4C(=O)OC[C@@H]4C(C)C)n3)nc2)ccc1F [Compound 1.1, (S)-3-(4-((S)-1-(5-(4-fluoro-3-methylphenyl)pyrimidin-2-yl)ethylamino)-1,3,5-triazin-2-yl)-4-isopropyloxazolidin-2-one] | > 50 µM | 2.77 µM | > 50 µM
Cc1cc(-c2cnc([C@@H](C)Nc3ncnc(N4C(=O)OC[C@@H]4C(C)C)n3)nc2)ccc1F [Compound 1.2, (4S)-3-(4-{[(1R)-1-[5-(4-fluoro-3-methylphenyl)pyrimidin-2-yl]ethyl]amino}-1,3,5-triazin-2-yl)-4-(propan-2-yl)-1,3-oxazolidin-2-one] | – | > 50 µM | > 50 µM
CC(C)[C@H]1COC(=O)N1c1ncnc(N[C@@H](C)c2cn(-c3ccc(C(F)(F)F)cc3)cn2)n1 [Compound 1.5, (S)-4-isopropyl-3-(4-((S)-1-(1-(4-(trifluoromethyl)phenyl)-1H-imidazol-4-yl)ethylamino)-1,3,5-triazin-2-yl)oxazolidin-2-one] | > 50 µM | 0.575 µM | > 30 µM
CC(C)[C@H]1COC(=O)N1c1ncnc(N[C@H](C)c2ccc(Cl)c(Cl)c2)n1 [Compound 1.6, (S)-3-(4-((R)-1-(3,4-dichlorophenyl)ethylamino)-1,3,5-triazin-2-yl)-4-isopropyloxazolidin-2-one] | – | > 30 µM | > 30 µM
CC(C)[C@H]1COC(=O)N1c1ncnc(N[C@@H](C)c2ccc(Cl)c(Cl)c2)n1 [Compound 1.7, (S)-3-(4-((S)-1-(3,4-dichlorophenyl)ethylamino)-1,3,5-triazin-2-yl)-4-isopropyloxazolidin-2-one] | > 50 µM | 2.87 µM | > 30 µM
CC(C)[C@H]1COC(=O)N1c1ncnc(N[C@@H](C)c2ccc(Oc3ccccc3)cc2)n1 [Compound 1.9, (S)-4-isopropyl-3-(4-((S)-1-(4-phenoxyphenyl)ethylamino)-1,3,5-triazin-2-yl)oxazolidin-2-one] | > 50 µM | 0.642 µM | > 30 µM
CC(C)[C@H]1COC(=O)N1c1ncnc(N[C@@H](C)c2ccc(-c3ccnc(C(F)(F)F)c3)cn2)n1 [Compound 1.11, (S)-4-isopropyl-3-(4-((S)-1-(2′-(trifluoromethyl)-3,4′-bipyridin-6-yl)ethylamino)-1,3,5-triazin-2-yl)oxazolidin-2-one] | > 50 µM | 11.4 µM | –
Cc1nc(N[C@@H](C)c2ccc(Oc3ccccc3)cc2)nc(N2C(=O)OCC2(C)C)n1 [Compound 1.110, (S)-4,4-dimethyl-3-(4-methyl-6-(1-(4-phenoxyphenyl)ethylamino)-1,3,5-triazin-2-yl)oxazolidin-2-one] | – | 2.02 µM | –

The remaining lines, values ahead:

IC50 (IDH2 mutant (R140Q)) | IC50 (IDH1 mutant (R132H)) | IC50 (IDH1-WT) | SMILES
> 30 µM | 0.83 µM | > 30 µM | Cc1cc(-c2ccc([C@H](C)Nc3ncnc(N4C(=O)OC[C@@H]4C(C)C)n3)nc2)ccc1F [Compound 1.3, (S)-3-(4-((S)-1-(5-(4-fluoro-3-methylphenyl)pyridin-2-yl)ethylamino)-1,3,5-triazin-2-yl)-4-isopropyloxazolidin-2-one]
> 50 µM | 3.3 µM | > 30 µM | CC(C)[C@H]1COC(=O)N1c1ncnc(N[C@@H](C)c2ccc(-c3ccc(C(F)(F)F)cc3)cn2)n1 [Compound 1.4, (S)-4-isopropyl-3-(4-((S)-1-(5-(4-(trifluoromethyl)phenyl)pyridin-2-yl)ethylamino)-1,3,5-triazin-2-yl)oxazolidin-2-one]
> 50 µM | 2.76 µM | > 30 µM | CC(C)[C@H]1COC(=O)N1c1ncnc(N[C@@H](C)c2ccc(-c3ccc(Cl)cc3)cn2)n1 [Compound 1.10, (S)-3-(4-((S)-1-(5-(4-chlorophenyl)pyridin-2-yl)ethylamino)-1,3,5-triazin-2-yl)-4-isopropyloxazolidin-2-one]
> 50 µM | 9.01 µM | – | CC(C)[C@H]1COC(=O)N1c1ncnc(N[C@@H](C)c2ccc(-c3ccc(F)cc3)cn2)n1 [Compound 1.12, (S)-3-(4-((S)-1-(5-(4-fluorophenyl)pyridin-2-yl)ethylamino)-1,3,5-triazin-2-yl)-4-isopropyloxazolidin-2-one]
> 50 µM | 0.77 µM | > 30 µM | CC(C)[C@H]1COC(=O)N1c1ncnc(N[C@@H](C)c2cn(-c3ccc(Cl)cc3)cn2)n1 [Compound 1.13, (S)-3-(4-((S)-1-(1-(4-chlorophenyl)-1H-imidazol-4-yl)ethylamino)-1,3,5-triazin-2-yl)-4-isopropyloxazolidin-2-one]
– | > 30 µM | – | CC[C@H]1COC(=O)N1c1nc(C)nc(N[C@@H](C)c2cc3cc(-c4ccc(Cl)cc4)ccc3[nH]c2=O)n1 [Compound 1.106, (S)-3-(4-((S)-1-(6-(4-chlorophenyl)-2-oxo-1,2-dihydroquinolin-3-yl)ethylamino)-6-methyl-1,3,5-triazin-2-yl)-4-ethyloxazolidin-2-one]
– | > 30 µM | – | CC[C@H]1COC(=O)N1c1nc(C)nc(N[C@H](C)c2cc3cc(-c4ccc(Cl)cc4)ccc3[nH]c2=O)n1 [Compound 1.107, (S)-3-(4-((R)-1-(6-(4-chlorophenyl)-2-oxo-1,2-dihydroquinolin-3-yl)ethylamino)-6-methyl-1,3,5-triazin-2-yl)-4-ethyloxazolidin-2-one]
– | 1.27 µM | – | CC[C@H]1COC(=O)N1c1nc(C)nc(N[C@@H](C)c2cc3cc(C)ccc3[nH]c2=O)n1 [Compound 1.108, (S)-4-ethyl-3-(4-methyl-6-((S)-1-(6-methyl-2-oxo-1,2-dihydroquinolin-3-yl)ethylamino)-1,3,5-triazin-2-yl)oxazolidin-2-one]
– | > 30 µM | – | CC[C@H]1COC(=O)N1c1nc(C)nc(N[C@H](C)c2cc3cc(C)ccc3[nH]c2=O)n1 [Compound 1.109, (S)-4-ethyl-3-(4-methyl-6-((R)-1-(6-methyl-2-oxo-1,2-dihydroquinolin-3-yl)ethylamino)-1,3,5-triazin-2-yl)oxazolidin-2-one]
– | 2.51 µM | – | CC[C@H]1COC(=O)N1c1nc(C)nc(NC(C)(C)c2ccc(Oc3ccccc3)cc2)n1 [Compound 1.111, (S)-4-ethyl-3-(4-methyl-6-(2-(4-phenoxyphenyl)propan-2-ylamino)-1,3,5-triazin-2-yl)oxazolidin-2-one]
